Data from US20160122307A1, “PERHYDROQUINOXALINE DERIVATIVES” (DR. AUGUST WOLFF GMBH & CO. KG ARZNEIMITTEL, priority 2013, published 2016).
Like-named read-outs stand apart in the source and are kept apart here.

Key:
Human opiate κ receptors [1] = molecular target: T1, Human opiate κ receptors (Homo sapiens, UniProt P41145); experiment: κ opioid receptor functional assay, [35S]GTPγS binding (assay C); type: biochemical; details: for activation at 1 µM: 0.5 h, read-out: % activation functional assay at 1 μM
[2] = test system: arachidonic acid-induced ear inflammation; type: in vivo, mice
[3] = test system: chloroquine-induced scratching; experiment: Effects on chloroquine-induced scratching (assay L); type: in vivo; details: intrathecal injection, mice
Protocol: L. Effects on Chloroquine-Induced Scratching
Compounds are intrathecally injected in a volume of 5 μl, 10 min before the i.d. injection of chloroquine (100 μg/10 μl) in the rostral back. Following the i.d. cheek injection, mice are placed in an arena with a clear glass floor and videotaped from beneath for 30 min. Videotapes are reviewed by blinded investigators, who count the number of hindlimb scratch bouts.

[4] = test system: Imiquimod-induced psoriasis; experiment: Imiquimod-induced psoriasis in mice (assay J); type: in vivo, Balb/c mice; details: s.c. or i.v.
Protocol: J. Imiquimod-Induced Psoriasis in Mice
Psoriasis in Balb/c mice is induced by daily application of topical Imiquimod for 8 days. Animal are treated with the test items (topical or systemically). Scratching was monitored. On day 9 the skin phenotype is characterized. Skin is analyzed histologically. Lymph nodes are analyzed by flow cytometry and RT-qPCR.

[5] = test system: UVB-induced inflammatory pain; experiment: UVB-induced inflammatory pain in rats (assay H); type: in vivo, Sprague-Dawley rats; details: s.c.
Protocol: H. UVB-Induced Inflammatory Pain In Rats
Male, Sprague-Dawley rats receive a single exposure of UVB radiation to the left hind paw. Mechanical hyperalgesia is assessed using a digital Randall-Selitto device (dRS). Thermal hyperalgesia is measured using a plantar test apparatus (see e.g. Davies S. L. J. Neurosci. Methods 2005; 148:161-166, Bishop T. Pain 2007; 131:70-82 and Graham I. J. Invest. Dermatol. 2004; 122:183-189).

[6] = test system: acetic acid-induced writhing; experiment: Acetic acid-induced writhing assay in mice (assay G); type: in vivo; details: s.c.
Protocol: G. Acetic Acid-Induced Writhing Assay in Mice
Analgesic activity against visceral or chemical pain is assessed by application of the test compound prior to application of an i.p. injection of acetic acid. The number of writhing responses that occur in response to acetic acid are counted (see e.g. Barber A. Med. Res. Rev. 1992; 12:525-62 and Ramabadran K. Pharm. Res. 1986,3:263-270).

[7] = test system: oxazolone delayed type hypersensitivity reaction; experiment: In vivo model for pruritus associated with the oxazolone model of a delayed type hypersensitivity reaction (assay D); set-up: species or system mice
Protocol: D. In Vivo Model for Pruritus Associated with the Oxazolone Model of a Delayed Type Hypersensitivity Reaction
Scratching activity in mice is measured after topical application of the test compound.

vasculitis = experiment: Vasculitis model in mice, LPS/TNF-α (assay I); type: in vivo, C57BL/6 mice; details: dose dependent
Protocol: I. Vasculitis Model in Mice
C57BL/6 mice receive an intradermal injection of LPS. On the following day vasculitis is induced by intradermal injection of TNF-α. In addition Evan's blue is injected. 24 hours following the injection of TNF-α mice are scarified. Ear thickness is measured and the degree of vasculitis is assessed by counting petechiae. The content of Evan's blue in the ear tissue is a marker for vascular permeability. Ears are analyzed by histology, FACS and RT-qPCR.

DSS-induced colitis = DSS-induced colitis in mice (assay K); type: in vivo, C57BL/6 mice
Protocol: K. DSS-Induced Colitis in Mice
Colitis is induced by treatment of C57BL/6 mice with 2.5% dextran sulfate (DSS) in the drinking water for 7 days. Mice are treated with the test item. Weight is monitored daily. At day 8 mice are scarified. A haemocult test is performed. The size of the colon is measured. Colitis is determined using a scoring system in H&E stains.

[8] = test system: chronic oxazolone-induced ear inflammation; experiment: In vivo model of chronic oxazolone-induced ear inflammation (assay E); set-up: species or system mice
Protocol: E. In Vivo Model of Chronic Oxazolone-Induced Ear Inflammation
Mice are challenged several times with oxazolone following an initial sensitization. Ear thickness is measured daily during the treatment period with topical application of the test compound (see e.g. Ottosen E. R. J. Med. Chem. 2003; 46: 5651-5662). At the end of the study ear weight is determined Ears are characterized histologically and by immunofluorescence. Gene expression was quantified (RT-qPCR).

Human opiate κ receptors [9] = molecular target: T1, Human opiate κ receptors; type: binding; set-up: expressed in transfected cells; host or cells: HEK-293 cell membranes
[10] = topical, versus vehicle control

T1 sequence (P41145 whole entry): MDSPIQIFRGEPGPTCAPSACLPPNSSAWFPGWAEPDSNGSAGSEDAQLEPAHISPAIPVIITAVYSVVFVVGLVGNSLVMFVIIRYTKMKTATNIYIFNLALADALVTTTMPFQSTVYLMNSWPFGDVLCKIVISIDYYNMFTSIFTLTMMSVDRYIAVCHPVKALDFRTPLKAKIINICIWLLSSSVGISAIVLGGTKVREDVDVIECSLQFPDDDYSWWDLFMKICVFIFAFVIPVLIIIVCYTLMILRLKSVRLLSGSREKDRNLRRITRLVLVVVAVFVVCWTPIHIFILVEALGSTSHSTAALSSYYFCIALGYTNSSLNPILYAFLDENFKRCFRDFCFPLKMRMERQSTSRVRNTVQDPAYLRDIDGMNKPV

COC(=O)c1ccc(C(=O)N2CCN(C(=O)Cc3ccc(Cl)c(Cl)c3)C3C(N4CCCC4)CCCC32)cc1 (racemic) [Example 81]
activation at 1 µM (Human opiate κ receptors [1]): 102% | increase in ear thickness [2, 10]: dose dependently prevented the increase | chloroquine-evoked scratching [3]: significantly inhibited

COC(=O)N1CCN(C(=O)Cc2ccc(Cl)c(Cl)c2)[C@@H]2[C@@H](N3CCCC3)CCC[C@@H]21 [Example 89, (4aR,5S,8aS)-methyl 4-(2-(3,4-dichlorophenyl)acetyl)-5-(pyrrolidin-1-yl)octahydroquinoxaline-1(2H)-carboxylate]
scratch numbers [4]: lower | size of the rete ridges ([4]; compared to vehicle control): decreased size | thermal hyperalgesia [5]: significant, dose dependent reduction | % activation functional assay at 1 μM (Human opiate κ receptors [1]): 100% | activation at 1 µM (Human opiate κ receptors [1]): 107% | number of writhing responses [6]: significant, dose dependent reduction | number of scratch events ([7]; mice, topical): significantly reduced | ear thickness ([7]; mice, topical, compared to vehicle treated animals): accelerated decrease | epidermal thickness, inflammatory infiltrate and epidermal oedema (histology) ([7]; semi-quantitative analysis): reduction | increase in ear thickness ([2]; mouse, in vivo, sc): prevented the increase | scratching activity ([2]; mouse, in vivo, sc): significantly reduced | ear thickness (vasculitis): reduction | inflammatory infiltrate (histology) (vasculitis): reduced inflammatory infiltrate | number of petechiae (vasculitis): reduced number | weight loss (DSS-induced colitis; compared to vehicle control): decreased weight loss | reduction in colon size induced by DSS (DSS-induced colitis; mouse, in vivo): normalized | inflammatory infiltrate (CD117+ mast cells and Gr-1+ neutrophils) ([8]; immunohistochemistry): dose dependent reduction | ear thickness ([8]; mice, topical, compared to vehicle control): dose dependent decreased | epidermal thickness, inflammatory infiltrate and epidermal oedema (histology) ([8]; semi-quantitative analysis): reduction

COC(=O)N1CCN(C(=O)Cc2ccc(Cl)c(F)c2)[C@@H]2[C@@H](N3CC[C@H](O)C3)CCC[C@@H]21 [Example 112]
activation at 1 µM (Human opiate κ receptors [1]): 93% | EC50 (Human opiate κ receptors [1]; GTPγS EC50 (nM)): < 10 nM | increase in ear thickness ([2]; mouse, in vivo): dose dependently prevented the increase

COC(=O)c1ccc(C(=O)N2CCN(C(=O)Cc3ccc(Cl)c(Cl)c3)[C@@H]3[C@@H](N4CCCC4)CCC[C@@H]32)cc1.Cl [Example 114]
% activation functional assay at 1 μM (Human opiate κ receptors [1]): 93% | EC50 (Human opiate κ receptors [1]; read-out: GTPγS EC50): 10 to 100 nM | increase in ear thickness [2, 10]: dose dependently prevented the increase | chloroquine-evoked scratching [3]: significantly inhibited

CNC(=O)C(=O)N1CCN(C(=O)Cc2ccc(Cl)c(Cl)c2)[C@@H]2[C@@H](N3CCCC3)CCC[C@@H]21.Cl [Example 118]
% activation functional assay at 1 μM (Human opiate κ receptors [1]): 104% | EC50 (Human opiate κ receptors [1]; read-out: GTPγS EC50): < 10 nM | increase in ear thickness [2, 10]: dose dependently prevented the increase

CS(=O)(=O)N1CCN(C(=O)Cc2ccc(Cl)c(F)c2)C2C(N3CCC(O)C3)CCCC21.Cl (stereo not shown) [Example 122]
% activation functional assay at 1 μM (Human opiate κ receptors [1]): 105% | EC50 (Human opiate κ receptors [1]; read-out: GTPγS EC50): < 10 nM | increase in ear thickness [2, 10]: dose dependently prevented the increase

CS(=O)(=O)N1CCN(C(=O)Cc2ccc(F)c(Cl)c2)C2C(N3CCC(O)C3)CCCC21.Cl (stereo not shown) [Example 125]
% activation functional assay at 1 μM (Human opiate κ receptors [1]): 99% | EC50 (Human opiate κ receptors [1]; read-out: GTPγS EC50): < 10 nM | increase in ear thickness [2, 10]: dose dependently prevented the increase | % binding at 100 nM (Human opiate κ receptors [9]): 80%

O=C(Cc1ccc(Cl)c(Cl)c1)N1CCN(S(=O)(=O)Cc2ccon2)[C@H]2CCC[C@H](N3CC[C@H](O)C3)[C@H]21 [Example 136]
% activation functional assay at 1 μM (Human opiate κ receptors [1]): 108% | EC50 (Human opiate κ receptors [1]; read-out: GTPγS EC50): < 10 nM | % binding at 100 nM (Human opiate κ receptors [9]): 96%

O=C(Cc1ccc(Cl)c(Cl)c1)N1CCN(S(=O)(=O)N2CCOCC2)[C@H]2CCC[C@H](N3CC[C@H](O)C3)[C@H]21 [Example 137]
% activation functional assay at 1 μM (Human opiate κ receptors [1]): 101% | EC50 (Human opiate κ receptors [1]; read-out: GTPγS EC50): < 10 nM | % binding at 100 nM (Human opiate κ receptors [9]): 71%

CNC(=O)C(=O)N1CCN(C(=O)Cc2ccc(Cl)c(Cl)c2)[C@@H]2[C@@H](N3CC[C@H](O)C3)CCC[C@@H]21 [Example 145]
% activation functional assay at 1 μM (Human opiate κ receptors [1]): 103% | EC50 (Human opiate κ receptors [1]; read-out: GTPγS EC50): 10 to 100 nM | increase in ear thickness [2, 10]: dose dependently prevented the increase | % binding at 100 nM (Human opiate κ receptors [9]): 62%

O=C(Cc1ccc(Cl)cc1)N1CCN(S(=O)(=O)Cc2ccon2)[C@H]2CCC[C@H](N3CC[C@H](O)C3)[C@H]21 [Example 146]
% activation functional assay at 1 μM (Human opiate κ receptors [1]): 103% | EC50 (Human opiate κ receptors [1]; read-out: GTPγS EC50): < 10 nM | % binding at 100 nM (Human opiate κ receptors [9]): 76%

O=C(Cc1ccc(Cl)c(F)c1)N1CCN(S(=O)(=O)Cc2ccon2)[C@H]2CCC[C@H](N3CC[C@H](O)C3)[C@H]21 [Example 147]
% activation functional assay at 1 μM (Human opiate κ receptors [1]): 105% | EC50 (Human opiate κ receptors [1]; read-out: GTPγS EC50): < 10 nM | % binding at 100 nM (Human opiate κ receptors [9]): 88%

O=C(Cc1ccc(F)c(Cl)c1)N1CCN(S(=O)(=O)Cc2ccon2)[C@H]2CCC[C@H](N3CC[C@H](O)C3)[C@H]21 [Example 148]
% activation functional assay at 1 μM (Human opiate κ receptors [1]): 93% | EC50 (Human opiate κ receptors [1]; read-out: GTPγS EC50): < 10 nM | % binding at 100 nM (Human opiate κ receptors [9]): 92%

O=C(Cc1ccc(F)c(F)c1)N1CCN(S(=O)(=O)Cc2ccon2)[C@H]2CCC[C@H](N3CC[C@H](O)C3)[C@H]21 [Example 149]
% activation functional assay at 1 μM (Human opiate κ receptors [1]): 97% | EC50 (Human opiate κ receptors [1]; read-out: GTPγS EC50): < 10 nM | % binding at 100 nM (Human opiate κ receptors [9]): 81%

COC(=O)N1CCN(C(=O)Cc2ccc(F)c(Cl)c2)[C@@H]2[C@@H](N3CC[C@H](F)C3)CCC[C@@H]21 [Example 150]
% activation functional assay at 1 μM (Human opiate κ receptors [1]): 92% | EC50 (Human opiate κ receptors [1]; read-out: GTPγS EC50): < 10 nM | % binding at 100 nM (Human opiate κ receptors [9]): 97%
